Patent US8445511B2, “Quinoline or quinoxaline derivatives for treating neurodegenerative diseases” (Centre National de la Recherche Scientifique (SNRS), priority 2008, dated 2013)
“Also recorded” adds a separate entry of the source.

Columns and labels:
MAP2+ neurons = test: Count of MAP2+ neurons in primary mesencephalic cultures (phenotypic specificity); format: cell-based, rat; conditions: DIV12; 10 nM and 100 nM; FIG. 5
Text: (§1) At 8 days of culture, the cells are fixed by a 4% formaldehyde solution and then washed three times with PBS. The cells then undergo several immunohistochemistry procedures: • anti-tyrosine hydroxylase (TH) visualized by a secondary antibody coupled to a fluorochrome that emits in the red spectrum (Cy3). • anti-MAP2 (MAP=microtubule-associated protein) (neuron marker) visualized by a secondary antibody coupled to a fluorochrome that emits in the green spectrum (alexa488). • DAPI (4′,6-diamidino-2-phenylindole), a nuclear marker that emits in the blue spectrum.
Neuroprotection is evaluated by counting TH positive neurons directly under the microscope or MAP2 positive on images, at 15 images per well, expressed as a percentage of the untreated control. The experiments include three wells per condition. Three independent experiments are carried out under these conditions. Total neurite length per cell calculated by the Neurite Outgrowth software by Explora Nova on 20 neurons photographed independently per well gives an indication of the state of maturation of the dopaminergic neurons. […]
First, the neurons are cultured and maintained at DIV12. […] The neurons are then counted via image with X20 enlargement at 15 images per well.

[1] = system: fetal dopaminergic neurons in culture; test: Neuroprotection and differentiation of dopaminergic (TH+) neurons in primary culture of rat embryo mesencephalon (spontaneous degeneration model); format: cell-based; design: key to Diff (qualitative assessment of neuron differentiation): + indicates that the neurons have a morphology similar to that of the control; ++ and +++ indicate the presence of neurons whose extensions are longer and more numerous than the control neurons; ++ and +++ indicate the presence of neurons whose extensions are longer and more numerous than the control neurons; − indicates that the neurons have neurites that are shorter and less numerous than the control neurons
Experimental: Dissection consists in extracting the embryos from the uterus of a rat at fifteen days of gestation. The brain of each embryo is then dissected under a binocular magnifier in order to extract the ventral mesencephalon.
The mesencephalons are gathered in a flask containing 2 ml of L15 medium and then mechanically dissociated (30 times), and then 5 ml of L15 medium are added. The suspension is left to rest for 8 minutes. 5 ml of the supernatant are recovered in a new flask and the cells are dissociated again (30 times). 5 ml of L15 are again added and the suspension is left to rest for 8 minutes. 5 ml of supernatant are added to the preceding. The cells thus extracted are then centrifuged for 5 minutes at 1,000 rpm. The cell pellet is taken up in Neurobasal medium supplemented with 1% B27, 1% glutamine and 1% penicillin/streptomycin mixture. The cells are then inoculated at the appropriate dilution (0.6 embryo per well on a 24-well plate and 0.4 per well on a 48-well plate). The cultures are incubated at 37° C. in a humid atmosphere enriched with 5% CO2 in a 24- or 48-well plate.
After 24 hours, two-thirds of the medium of each well is replaced by new medium enriched with the compound of the invention to test at the appropriate dilution. The medium is replaced in the same way after 4 days of culture.
as §1
Neuroprotection is evaluated by counting TH positive neurons directly under the microscope or MAP2 positive on images, at 15 images per well, expressed as a percentage of the untreated control. The experiments include three wells per condition. Three independent experiments are carried out under these conditions. Total neurite length per cell calculated by the Neurite Outgrowth software by Explora Nova on 20 neurons photographed independently per well gives an indication of the state of maturation of the dopaminergic neurons.
The compounds of the invention were tested on a model of spontaneous degeneration of dopaminergic neurons in culture.
This model consists of culturing cells of the ventral mesencephalon of rat embryo. This part of the brain in culture contains dopaminergic neurons and other primarily GABAergic neurons. These cultures are also composed of glial cells, namely astrocytes, oligodendrocytes and microglia. This is a model of spontaneous degeneration of dopaminergic neurons which mimics certain aspects of Parkinson's disease.
The neuroprotective effect of the compounds of the invention was evaluated by counting dopaminergic neurons (TH^+) marked by tyrosine hydroxylase (TH) immunohistochemistry after 8 days of culture. Thus the compounds were evaluated at 1 nM, 10 nM, 100 nM and 1 μM and were compared with the activity of dibutyryl cyclic AMP (db-cAMP) used as the reference product.
In order to evaluate more quantitatively the activity of the compounds of the invention, neurite growth per cell was measured using the Neurite Outgrowth software developed by Explora Nova. A minimum of 60 neurons per condition were photographed and studied, and the results were then averaged and normalized by the number of neurons considered.

GABAergic neurons = test: Measurement of tritiated GABA reuptake in primary mesencephalic cultures; format: cell-based, rat; conditions: 12 days of culture; 10 nM and 100 nM; FIG. 6
Experimental: The primary cultures are treated and cultivated as previously indicated with 0.5 embryo per well in a 24-well plate for 12 days. The medium is then replaced by a medium lacking serum and enriched with glucose (PBS+5 mM glucose). The cells are incubated in this medium for 10 minutes. 50 μl of tritiated GABA in solution (20 μl of 1 mCi/ml ^3H-GABA in 1 ml PBS) is added in each well and the cells are incubated for 5 minutes at 37° C. Since GABA is taken back up very quickly, it is important to be fast when adding reagents and not to handle too many wells at the same time.
All wells except one are then washed twice with PBS, and then 500 μl distilled water is added. The cells are scraped and the liquid transferred to scintillation vials containing 7 ml scintillation liquid (Biodegradable Counting Scintillant-liquid scintillation spectroscopy, BCS), well by well. The plate containing the remaining well is placed on ice for 30 minutes, then 50 μl of the same GABA solution is added. After 5 minutes, the well is washed twice with PBS and then the cells are lysed with 500 μl distilled water, scraped and the liquid is transferred to a vial containing 5 ml scintillation liquid. This well will be used to measure non-specificity. The samples are run through the scintillation counter.

dopaminergic neurons = test: Measurement of tritiated dopamine reuptake in primary mesencephalic cultures; format: cell-based, rat; conditions: 12 days of culture; 1 nM, 10 nM, 100 nM and 1 μM; FIG. 4
Experimental: The primary cultures are treated and cultivated as previously indicated for 12 days in a 24-well plate. The medium is then replaced by a medium lacking serum and enriched with glucose (PBS+5 mM glucose). One well is treated with GBR (5 μM) and will be used to determine nonspecific reuptake. The cells are incubated in this medium for 10 minutes. 50 μl of tritiated dopamine in solution (20 μl of 1 mCi/ml ^3H-dopamine in 1 ml PBS) is added in each well and the cells are incubated for 20 minutes at 37° C.
The wells are then washed twice with PBS, and then 500 μl distilled water is added. The cells are scraped and the liquid transferred to scintillation vials containing 7 ml scintillation liquid (Biodegradable Counting Scintillant-liquid scintillation spectroscopy, BCS), well by well. The samples are run through the scintillation counter.
Neurons at 12 days of culture are then cultivated for a short time in the presence of tritiated dopamine (H^3-DA). After washing, the cells are lysed and intraneuronal H^3-DA is recovered and assayed by scintillation counter.

Compound: C#CC(O)CCCCCCCCCCCCC#Cc1ccc2ccccc2n1 (centres unmarked) [Compound N3, 17-(quinolin-2-yl)heptadec-1,16-diyn-3-ol]
- survival of total neurons of the culture (MAP2+ neurons) versus untreated control (MAP2+ neurons): increased
- dose-response of effect on survival of dopaminergic neurons ([1]; 1 nM, 10 nM, 100 nM and 1 μM, FIG. 2): dose-dependent
- Diff (qualitative assessment of neuron differentiation) ([1]; 100 nM, dopaminergic neurons in culture): +++
- viability at 0.1 µM ([1]; Rattus norvegicus, Neuron, 192 h, 100 nM, survival of TH+ dopaminergic neurons after 8 days of culture, read-out: % Neurons relative to the control ±SEM): 154 ± 4.1%
- neuroprotective activity (percentage of survival of dopaminergic neurons), in words, versus reference product db-cAMP ([1]; dopaminergic neurons, 8 days of culture): equal to or greater than that of the reference product; also recorded: the most active compound
- concentration of maximum effect on survival of dopaminergic neurons ([1]; dose-response curve, FIG. 2): 100 nM
- activity of total neurons of the culture (reuptake of tritiated GABA) versus untreated control (GABAergic neurons): increased
- reuptake of tritiated dopamine by dopaminergic neurons versus untreated control (dopaminergic neurons): increased
